# Laboratory results published in patent publication US20150274680A1, “THERAPEUTIC OR PROPHYLACTIC AGENT FOR TUMOR LYSIS SYNDROME” (University of Fukui, priority 2012, published 2015).
# Columns and labels:
# Assay type in all cases: in vivo, human
# [1] = test system: high-risk tumor lysis syndrome patient; test: Therapeutic effect on serum uric acid levels and renal function in a high-risk tumor lysis syndrome patient (Example 1)
# Experimental: In order to investigate the therapeutic effects of febuxostat on a high-risk tumor lysis syndrome patient, a high-risk patient with tumor lysis syndrome which had occurred without antitumor therapy, and already presented hyperuricemia, was given transfusions of fresh frozen plasma and packed red blood cells, and then in addition to increasing a urine volume by supplying fluid and to alkalizing urine, febuxostat (60 mg) was orally administered for 3 days, and the serum uric acid levels and renal function were compared with those before administration of febuxostat.
# A person, Myelodysplastic syndrome (MDS), White blood cell count (WBC) 15400/μL
# [2] = test system: patients with hematological malignancies at low or intermediate risk for tumor lysis syndrome; test: Prophylactic effect on serum uric acid, renal function and urinary uric acid excretion in patients with hematological malignancies receiving chemotherapy (Example 2)
# Experimental: In order to investigate the prophylactic effects of febuxostat on tumor lysis syndrome, 10 mg of febuxostat (the starting dose in gout and hyperuricemia) was orally administered once a day, daily, from just before or the day before chemotherapy was performed on patients with hematological malignancies at low or intermediate risk for tumor lysis syndrome, and the serum uric acid level and the renal function on the fifth day of administration were compared with those before the start of febuxostat administration. For cases in which urine collection was possible, the urinary excretion level of uric acid on the fifth day of administration was compared with that before the start of febuxostat administration. […] Seven male and female cases (6 males and 1 female), aged 36 to 79 (median 70), acute myeloid leukemia (AML 3 cases), diffuse large B-cell lymphoma (DLBCL 2 cases), chronic myelomonocytic leukemia (CMML 1 case), chronic myeloid leukemia (CML 1 case), white blood cell count (WBC) 3,200 to 347,000/μL [table]
# [3] = test system: malignant tumor patients with tumor lysis syndrome; test: Prophylactic effect on serum uric acid levels when chemotherapy is performed on malignant tumor patients with tumor lysis syndrome (Example 3); conditions: oral once daily from before chemotherapy, adult and pediatric patients; written in present tense, no data
# Experimental: In order to investigate prophylactic effects of febuxostat on tumor lysis syndrome, febuxostat is orally administered once a day, daily, from before chemotherapy is performed on a malignant tumor adult patient with tumor lysis syndrome, and an assessment is made by using serum uric acid levels as indicators. In addition, also for a malignant tumor pediatric patient with tumor lysis syndrome, similar investigation is conducted with febuxostat.
smiles,measurement,setting,value
"Cc1nc(-c2ccc(OCC(C)C)c(C#N)c2)sc1C(=O)O [febuxostat, 2-[3-cyano-4-(2-methylpropoxyl)phenyl]-4-methylthiazole-5-carboxylic acid]",Serum creatinine (Cre),"[1]; Day 4, after 3 days of febuxostat 60 mg/day, 0.87 mg/dL before administration",0.73 mg/dL
same,Estimated glomerular filtration rate (eGFR),"[1]; Day 4, after 3 days of febuxostat 60 mg/day, 53 mL/min before administration",64 mL/min
same,Serum uric acid level (UA),"[1]; Day 4, after 3 days of oral febuxostat 60 mg/day, person, MDS, 9.7 mg/dL on the day before administration",1.7 mg/dL
same,Reduction of serum uric acid level,"[1]; Day 4 vs day before administration, febuxostat 60 mg/day for 3 days",82.4%
same,"Serum uric acid level (UA), Case 2","[2]; Case 2 (AML), fifth day of febuxostat 10 mg/day, 1.9 mg/dL before administration",2.3 mg/dL
same,"Urinary excretion level of uric acid (urinary UA), Case 2","[2]; Case 2, fifth day of febuxostat 10 mg/day, 0.8 g/day before administration",1.6 g/day
same,"Estimated glomerular filtration rate (eGFR), Case 2","[2]; Case 2, fifth day of febuxostat 10 mg/day, 101 mL/min before administration",99 mL/min
same,Acute renal failure,"[2]; all cases, febuxostat 10 mg/day with chemotherapy","in all cases, acute renal failure was prevented"
same,Serum uric acid levels relative to normal levels,"[2]; all cases, prophylactic febuxostat 10 mg with chemotherapy, normal level 7.5 mg/dL or less",maintain the serum uric acid levels within or lower them to within normal levels
same,"Urinary excretion level of uric acid (urinary UA), average","[2]; cases where urine collection was possible, fifth day of febuxostat 10 mg/day, 1.2 g/day on average before administration",0.9 g/day
same,"Serum uric acid level (UA), average","[2]; fifth day of febuxostat 10 mg once daily oral, average of 7 cases, 6.3 mg/dL on average before administration",4.6 mg/dL
same,"Estimated glomerular filtration rate (eGFR), average","[2]; fifth day of febuxostat 10 mg once daily, average, 69.7 mL/min on average before administration",76.9 mL/min
same,"Urinary excretion level of uric acid (urinary UA), severe case with high WBC","[2]; severe case in which WBC was high, fifth day of febuxostat 10 mg/day, 2.4 g/day before administration",0.7 g/day
same,Prevention of tumor lysis syndrome (serum uric acid levels as indicators),[3],effective for the prevention of tumor lysis syndrome
